Results from ChEMBL document CHEMBL1201862, “PubChem BioAssay data set” (2004).
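Five compound concentrations were applied to cells in 96-well plates for 48 hours; endpoints were derived by simple linear interpolation of the resulting dose-response curve. Abbreviation: GI50, concentration required for 50% inhibition of growth.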 Calls of active or inactive are those of the source. No stated cut-off is given here; in the data, active = GI50 up to about 1.1 µM and inactive = higher.

Columns and labels:
Experiment in all cases: NCI anticancer screen, dose series, 48 h
KM-20L2 = test system: KM-20L2
OVCAR-8 = test system: OVCAR-8
SK-OV-3 = test system: SK-OV-3
NCI-H460 = test system: NCI-H460
HCC 2998 = test system: HCC 2998
KM12 = test system: KM12
M14 = test system: M14
PC-3 = test system: PC-3
RXF 393 = test system: RXF 393
A549 = test system: A549
HCT-116 = test system: HCT-116
SK-MEL-28 = test system: SK-MEL-28
MOLT-4 = test system: MOLT-4
Hs-578T = test system: Hs-578T
SF-295 = test system: SF-295
SN12C = test system: SN12C
NCI-H226 = test system: NCI-H226
DU-145 = test system: DU-145
BT-549 = test system: BT-549
COLO 205 = test system: COLO 205
OVCAR-3 = test system: OVCAR-3
HOP-62 = test system: HOP-62
NCI/ADR-RES = test system: NCI/ADR-RES
CCRF-CEM = test system: CCRF-CEM
786-0 = test system: 786-0
SK-MEL-2 = test system: SK-MEL-2
LOX IMVI = test system: LOX IMVI
CAKI-1 = test system: CAKI-1
K562 = test system: K562
SNB-75 = test system: SNB-75
UACC-62 = test system: UACC-62
U-251 = test system: U-251
SF-268 = test system: SF-268
A498 = test system: A498
T47D = test system: T47D
IGROV-1 = test system: IGROV-1
HT-29 = test system: HT-29
MDA-MB-231 = test system: MDA-MB-231
MCF7 = test system: MCF7
HOP-92 = test system: HOP-92
SK-MEL-5 = test system: SK-MEL-5
MDA-MB-435 = test system: MDA-MB-435
OVCAR-5 = test system: OVCAR-5
HL-60 = test system: HL-60
SF-539 = test system: SF-539
TK-10 = test system: TK-10
NCI-H522 = test system: NCI-H522
HCT-15 = test system: HCT-15
EKVX = test system: EKVX
MDA-N = test system: MDA-N
ACHN = test system: ACHN
NCI-H23 = test system: NCI-H23
SR = test system: SR
SW-620 = test system: SW-620
UACC-257 = test system: UACC-257
UO-31 = test system: UO-31
SNB-19 = test system: SNB-19
RPMI-8226 = test system: RPMI-8226
Malme-3M = test system: Malme-3M
OVCAR-4 = test system: OVCAR-4

CC(C)SC1CC2C(CC1(C)O)C2(C)C (centres undefined)
GI50 (KM-20L2): 4.3 µM (inactive)

O=C1C(Cl)=C(Nc2ccc(OC(F)(F)F)cc2)C(=O)c2c(O)ccc(O)c21
GI50 (OVCAR-8): 0.71 µM (active)
GI50 (SK-OV-3): 1.66 µM (inactive)
GI50 (NCI-H460): 1.71 µM (inactive)
GI50 (HCC 2998): 0.544 µM (active)
GI50 (KM12): 1.5 µM (inactive)
GI50 (M14): 0.423 µM (active)
GI50 (PC-3): 0.679 µM (active)
GI50 (RXF 393): 0.519 µM (active)
GI50 (A549): 1.22 µM (inactive)
GI50 (HCT-116): 0.203 µM (active)
GI50 (SK-MEL-28): 0.762 µM (active)
GI50 (MOLT-4): 359 nM (active)
GI50 (Hs-578T): 0.719 µM (active)
GI50 (SF-295): 1.93 µM (inactive)
GI50 (SN12C): 0.468 µM (active)
GI50 (NCI-H226): 1.5 µM (inactive)
GI50 (DU-145): 0.705 µM (active)
GI50 (BT-549): 0.855 µM (active)
GI50 (COLO 205): 1.2 µM (inactive)
GI50 (OVCAR-3): 505 nM (active)
GI50 (HOP-62): 1.17 µM (inactive)
GI50 (NCI/ADR-RES): 1.74 µM (inactive)
GI50 (CCRF-CEM): 377 nM (active)
GI50 (786-0): 0.445 µM (active)
GI50 (SK-MEL-2): 0.292 µM (active)
GI50 (LOX IMVI): 0.262 µM (active)
GI50 (CAKI-1): 1.6 µM (inactive)
GI50 (K562): 0.284 µM (active)
GI50 (SNB-75): 0.735 µM (active)
GI50 (UACC-62): 0.975 µM (active)
GI50 (U-251): 0.726 µM (active)
GI50 (SF-268): 0.594 µM (active)
GI50 (A498): 3.87 µM (inactive)
GI50 (T47D): 0.417 µM (active)
GI50 (IGROV-1): 745 nM (active)
GI50 (HT-29): 0.385 µM (active)
GI50 (MDA-MB-231): 0.443 µM (active)
GI50 (MCF7): 0.46 µM (active)
GI50 (HOP-92): 0.826 µM (active)
GI50 (SK-MEL-5): 2.11 µM (inactive)
GI50 (MDA-MB-435): 0.873 µM (active)
GI50 (OVCAR-5): 1.76 µM (inactive)
GI50 (HL-60): 182 nM (active)
GI50 (SF-539): 1.73 µM (inactive)
GI50 (TK-10): 1.48 µM (inactive)
GI50 (NCI-H522): 0.571 µM (active)
GI50 (HCT-15): 0.366 µM
GI50 (EKVX): 0.877 µM (active)
GI50 (MDA-N): 2.22 µM (inactive)
GI50 (ACHN): 1.45 µM (inactive)
GI50 (NCI-H23): 0.303 µM (active)
GI50 (SR): 0.275 µM (active)
GI50 (SW-620): 0.891 µM (active)
GI50 (UACC-257): 0.959 µM (active)
GI50 (UO-31): 0.561 µM (active)
GI50 (SNB-19): 1.22 µM (inactive)
GI50 (RPMI-8226): 0.0598 µM (active)
GI50 (Malme-3M): 1.01 µM (active)
GI50 (OVCAR-4): 1.57 µM (inactive)

Cc1cc(N(CCC#N)CCC#N)ccc1C(=N/NC(=O)c1cc(Cl)ccc1O)/N=N/c1cccc(Cl)c1
GI50 (OVCAR-8): 12.1 µM (inactive)
GI50 (SK-OV-3): 20.6 µM (inactive)
GI50 (NCI-H460): 6.27 µM (inactive)
GI50 (HCC 2998): 12 µM (inactive)
GI50 (KM12): 11.2 µM (inactive)
GI50 (M14): 15.5 µM (inactive)
GI50 (PC-3): 10.1 µM (inactive)
GI50 (RXF 393): 10.7 µM (inactive)
GI50 (A549): 17.1 µM (inactive)
GI50 (HCT-116): 12.2 µM (inactive)
GI50 (SK-MEL-28): 16 µM (inactive)
GI50 (MOLT-4): 4810 nM (inactive)
GI50 (Hs-578T): 39.1 µM (inactive)
GI50 (SF-295): 22 µM (inactive)
GI50 (SN12C): 19.1 µM (inactive)
GI50 (NCI-H226): 18.8 µM (inactive)
GI50 (DU-145): 18.1 µM (inactive)
GI50 (BT-549): 14.8 µM (inactive)
GI50 (COLO 205): 5.96 µM (inactive)
GI50 (OVCAR-3): 3560 nM (inactive)
GI50 (HOP-62): 13.2 µM (inactive)
GI50 (NCI/ADR-RES): 16.3 µM (inactive)
GI50 (CCRF-CEM): 4410 nM (inactive)
GI50 (786-0): 11.5 µM (inactive)
GI50 (SK-MEL-2): 10.8 µM (inactive)
GI50 (LOX IMVI): 11.4 µM (inactive)
GI50 (CAKI-1): 17.9 µM (inactive)
GI50 (K562): 15.7 µM (inactive)
GI50 (SNB-75): 13.5 µM (inactive)
GI50 (UACC-62): 10.6 µM (inactive)
GI50 (U-251): 25.2 µM (inactive)
GI50 (SF-268): 11.8 µM (inactive)
GI50 (A498): 28.4 µM (inactive)
GI50 (T47D): 15.4 µM (inactive)
GI50 (IGROV-1): 1400 nM (inactive)
GI50 (HT-29): 16.1 µM (inactive)
GI50 (MDA-MB-231): 15.7 µM (inactive)
GI50 (MCF7): 8.79 µM (inactive)
GI50 (HOP-92): 11.8 µM (inactive)
GI50 (SK-MEL-5): 13.7 µM (inactive)
GI50 (MDA-MB-435): 27.3 µM (inactive)
GI50 (OVCAR-5): 41.6 µM (inactive)
GI50 (HL-60): 4480 nM (inactive)
GI50 (SF-539): 30.1 µM (inactive)
GI50 (TK-10): 16.5 µM (inactive)
GI50 (NCI-H522): 13.5 µM (inactive)
GI50 (HCT-15): 6.62 µM
GI50 (EKVX): 14.4 µM (inactive)
GI50 (MDA-N): 29.5 µM (inactive)
GI50 (ACHN): 13 µM (inactive)
GI50 (NCI-H23): 13.7 µM (inactive)
GI50 (SR): 6.04 µM (inactive)
GI50 (SW-620): 17.8 µM (inactive)
GI50 (UACC-257): 15.2 µM (inactive)
GI50 (UO-31): 18.9 µM (inactive)
GI50 (SNB-19): 22.9 µM (inactive)
GI50 (RPMI-8226): 9.79 µM (inactive)
GI50 (Malme-3M): 14.2 µM (inactive)
GI50 (OVCAR-4): 8.85 µM (inactive)
